Measurements taken from publication PMC8769072, “Proteome‐scale mapping of binding sites in the unstructured regions of the human proteome” (Molecular Systems Biology, 2022).
Where two headings read alike, the source gives them in different places. Where a SMILES comes first, the peptide text is derived from it. Where no end group is shown, it is not given here. [ ]: non-standard residue; d: D form. The star is where a group is joined. FITC = O=C1OC2(c3ccc(O)cc3Oc3cc(O)ccc32)c2ccc(NC(=S)*)cc21; pT = C[C@@H](OP(=O)(O)O)[C@H](N)C(=O)O

Assays:
CLTC = molecular target: T1, CLTC (Homo sapiens, UniProt Q00610); assay: FP competition, CLTC; type: binding; details: competitive FP assay
T1 construct: Q00610; CLTC; Clathrin propeller; 364; pETM33; Genescript; 6-His-GST; made in house; host or cells: Escherichia coli BL21(DE3) gold (stated for the bait preparation)
T1 sequence (Q00610 1-364): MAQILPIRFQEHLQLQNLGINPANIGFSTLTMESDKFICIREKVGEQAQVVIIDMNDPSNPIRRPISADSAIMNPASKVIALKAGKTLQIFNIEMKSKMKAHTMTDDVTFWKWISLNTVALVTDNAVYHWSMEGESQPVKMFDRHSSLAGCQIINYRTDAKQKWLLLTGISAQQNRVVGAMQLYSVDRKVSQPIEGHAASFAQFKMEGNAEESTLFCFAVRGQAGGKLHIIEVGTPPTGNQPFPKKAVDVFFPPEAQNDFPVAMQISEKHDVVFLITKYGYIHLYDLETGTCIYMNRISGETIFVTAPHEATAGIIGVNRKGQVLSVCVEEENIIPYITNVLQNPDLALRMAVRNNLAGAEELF

KPNB1 HEAT = molecular target: T2, KPNB1 HEAT (Homo sapiens, UniProt Q14974); assay: FP competition, KPNB1 HEAT; type: binding; details: for Ki: FP competition with FITC-NUP153 probe, low-affinity value
T2 construct: Q14974; KPNB1; HEAT; 485; pETM41; Genescript; 6-His-MBP (from vector pETM41) (cleaved yes); made in house; host or cells: bacteria (E. coli BL21(DE3) gold is named only for the phage-selection preparations)

KPNA4 ARM [1] = molecular target: T3, KPNA4 ARM (Homo sapiens, UniProt O00629); assay: FP saturation (direct binding of FITC probes), KPNA4 ARM; details: Appendix Fig S7; saturation curves of FITC-labeled probes with KPNA4 ARM
T3 construct: O00629; KPNA4; Arm; 68; 487; pETM33/pETM41; Genescript; made in house; host or cells: bacteria (E. coli BL21(DE3) gold is named only for the phage-selection preparations)

KPNA4 ARM [2] = molecular target: T3, KPNA4 ARM; assay: FP competition, KPNA4 ARM major pocket (FITC-Myc probe); type: binding; details: FP competition with FITC-Myc320-328 probe for the major pocket; 50 mM KPO4 pH 7.5; n = 3 technical replicates
From the text: (§1) Like other importins, KPNA4 has two distinct NLS‐binding pockets on the surface of an armadillo (ARM) repeat fold (major pocket, ARM 2–4; minor pocket, ARM 6–8; Fig 5B) (Smith et al, [2018]). Bipartite NLSs are usually 17–19 amino acids long and engage both pockets. Monopartite NLSs are short basic stretches, divided into five classes (Kosugi et al, [2009]): class I KR[KR]R or K[KR]RK, class II [PR]xxKR[^DE][KR] (where ^ indicates “not”), class III KRx[WFY]xxAF, class IV [RP]xxKR[KR][^DE], and class V LGKR[KR][WFY]. The class I and class II motifs preferentially interact with the major pocket (Kosugi et al, [2009]). In contrast, class III and class IV NLSs preferentially bind to the minor pocket. Using KPNA4 as a bait against the HD2 P8 library we identified 33 peptides found in 32 proteins. Of the 26 proteins for which information was available, 22 proteins were annotated as having nuclear or nucleolar localization in the UniProt database. To gain additional information we combined the data generated for KPNA4 by screening against the complete P8 HD2 library, with the results generated using two relevant sublibraries (the cytoplasmic and nuclear, and nuclear sublibraries) resulting in a set of 92 peptides containing NLS‐like sequences found in 76 proteins. Using these peptides we could generate consensus motifs that matched four of the previously reported NLS classes (Fig 5A; class I‐IV). […] Three peptides bound only to the major pocket. Eight peptides with class III motif and one KRxH‐containing peptide only bound to the minor pocket. Five peptides outcompeted both probe peptides, which may be explained by the amino acid sequence matching both class II and class III motifs (e.g., 1135‐ PSPKRKL ‐1139 in ZNF532; Fig 5), and possibly by cross specificity of the two binding pockets.

KPNA4 ARM [3] = molecular target: T3, KPNA4 ARM; assay: FP competition, KPNA4 ARM minor pocket (FITC-NCOR2 probe); type: binding
From the text: as §1

TLN1 PTB = molecular target: T4, TLN1 PTB (Homo sapiens, UniProt Q9Y490); assay: FP competition, TLN1 PTB; type: binding
T4 construct: Q9Y490; TLN1; PTB; 309; pHH0103; Sidhu Lab (PMID: 33438817); made in house; host or cells: bacteria (E. coli BL21(DE3) gold is named only for the phage-selection preparations)

KEAP1 Kelch = molecular target: T5, KEAP1 Kelch (Homo sapiens, UniProt Q14145); assay: FP competition, KEAP1 Kelch; type: binding; details: for binding to KEAP1 Kelch, result in words: FP competition with FITC-NFE2L1 probe
T5 construct: Q14145; KEAP1; Kelch; 321; 609; pETM33; Genescript; made in house; host or cells: bacteria (E. coli BL21(DE3) gold is named only for the phage-selection preparations)
T5 sequence (Q14145 321-609): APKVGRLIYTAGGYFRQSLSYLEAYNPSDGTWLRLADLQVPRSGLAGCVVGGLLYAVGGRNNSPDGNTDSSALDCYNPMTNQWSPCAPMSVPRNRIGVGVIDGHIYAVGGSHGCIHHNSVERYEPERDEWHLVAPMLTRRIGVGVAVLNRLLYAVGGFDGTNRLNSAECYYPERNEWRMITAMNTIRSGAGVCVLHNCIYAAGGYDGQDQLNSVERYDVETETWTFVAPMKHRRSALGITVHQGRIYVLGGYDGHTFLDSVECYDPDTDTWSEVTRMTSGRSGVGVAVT
Experimental: Fluorescence polarization affinity measurements were carried out with an iD5 multidetection plate reader (Molecular Devices) using Corning assay 96‐well half area black Flat‐bottom Nonbinding surface plates (Corning, USA #3993). The settings were 485 nm excitation and 535 nm for emission at a reading height of 1.76 mm and total volume of 50 µl. Peptides were obtained from GeneCust (France) at > 95% purity. Unlabeled peptides were dissolved in 50 mM KPO4 or 50 mM NaPO4, pH 7.5. FITC‐labeled peptides were dissolved in dimethyl sulfoxide (DMSO). Protein for saturation experiments, or peptides for the displacement experiments, were arrayed in serial dilution in 50 mM KPO4 pH 7.5 in 25 µl, followed by addition of 25 µl of a master mix. For saturation binding experiments, the master mix contained 2 mM DTT and 10 nM FITC‐labeled peptide in 50 mM KPO4 pH 7.5 or 50 mM NaPO4 pH 7.5. For competition experiments, the master mix was supplemented with the protein of interest at a concentration of four times the K D value. Data were analyzed with GraphPad Prism version 9.0.0 for MacOS (GraphPad Software, San Diego, California USA, www.graphpad.com). For direct binding, we used a quadratic equation with pept indicating the fixed probe peptide concentrations, X indicating the protein concentration, the constant A being the signal amplitude divided by probe peptide concentration, and B is the plateau value: Y=A∗pept+X+KD‐(pept+X+KD)^2‐4∗pept∗X/2+B.
For the FP competition experiments data were fitted to a sigmoidal dose–response (variable response; GraphPad Prism).

T3 sequence (O00629 68-487): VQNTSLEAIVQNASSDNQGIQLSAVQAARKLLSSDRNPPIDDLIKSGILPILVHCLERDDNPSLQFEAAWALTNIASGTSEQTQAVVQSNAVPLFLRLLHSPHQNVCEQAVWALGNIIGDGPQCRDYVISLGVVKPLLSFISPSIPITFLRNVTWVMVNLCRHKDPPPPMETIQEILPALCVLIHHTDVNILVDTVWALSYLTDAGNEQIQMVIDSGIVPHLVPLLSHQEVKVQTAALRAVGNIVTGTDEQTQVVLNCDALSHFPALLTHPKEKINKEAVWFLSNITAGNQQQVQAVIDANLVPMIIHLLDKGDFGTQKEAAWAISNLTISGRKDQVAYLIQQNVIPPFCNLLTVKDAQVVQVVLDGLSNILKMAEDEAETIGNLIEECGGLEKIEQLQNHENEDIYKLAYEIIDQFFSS
T2 sequence (Q14974 1-485): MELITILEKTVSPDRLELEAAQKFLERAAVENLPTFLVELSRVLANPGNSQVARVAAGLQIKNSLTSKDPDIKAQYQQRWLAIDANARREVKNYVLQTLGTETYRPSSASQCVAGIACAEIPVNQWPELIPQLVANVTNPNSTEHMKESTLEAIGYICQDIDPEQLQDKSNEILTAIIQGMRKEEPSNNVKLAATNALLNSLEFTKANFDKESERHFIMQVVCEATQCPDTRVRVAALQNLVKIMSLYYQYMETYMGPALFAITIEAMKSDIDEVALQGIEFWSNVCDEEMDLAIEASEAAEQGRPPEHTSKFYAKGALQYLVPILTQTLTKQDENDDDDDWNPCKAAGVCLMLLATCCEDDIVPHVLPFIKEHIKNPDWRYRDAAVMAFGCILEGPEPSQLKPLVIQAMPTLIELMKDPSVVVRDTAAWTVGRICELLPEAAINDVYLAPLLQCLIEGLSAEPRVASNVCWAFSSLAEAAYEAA
T4 sequence (Q9Y490 309-401): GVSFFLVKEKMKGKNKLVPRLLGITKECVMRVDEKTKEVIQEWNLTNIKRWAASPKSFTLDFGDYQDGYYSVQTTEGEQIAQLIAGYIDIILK

CC[C@H](C)[C@H](NC(=O)[C@H](CC(C)C)NC(=O)[C@@H]1CCCN1C(=O)[C@H](CC(C)C)NC(=O)[C@H](CC(=O)O)NC(=O)[C@@H](NC(=O)[C@H](CC(C)C)NC(C)=O)[C@@H](C)CC)C(=O)N[C@@H](CC(=O)O)C(=O)N[C@@H](Cc1ccccc1)C(=O)N[C@@H](CS)C(=O)N[C@@H](CC(=O)O)C(=O)N[C@H](C(=O)N1CCC[C@H]1C(=O)N[C@@H](CCC(=O)O)C(=O)N[C@@H](C)C(=O)N[C@@H](Cc1c[nH]cn1)C(=O)N[C@@H](Cc1ccc(O)cc1)C(=O)O)[C@@H](C)OP(=O)(O)O [GTSE1 pT] (Ac-LIDLPLIDFCD[pT]PEAHY-OH)
IC50 (CLTC): 87 µM

CC(=O)NCC(=O)N[C@@H](Cc1ccc(O)cc1)C(=O)N[C@H](C(=O)N[C@@H](Cc1ccccc1)C(=O)N[C@@H](CCC(N)=O)C(=O)N[C@H](C(=O)N[C@@H](CCC(N)=O)C(=O)N[C@@H](CC(=O)O)C(=O)NCC(=O)N[C@@H](C)C(=O)N1CCC[C@H]1C(=O)NCC(=O)N[C@H](C(=O)N[C@@H](Cc1ccccc1)C(=O)N[C@@H](CC(N)=O)C(=O)N[C@@H](Cc1ccccc1)C(=O)O)[C@@H](C)O)C(C)C)[C@@H](C)O [KPNA2_514–529]
Ki (KPNB1 HEAT): 1000 µM

CC[C@H](C)[C@H](NC(=O)[C@H](C)NC(=O)[C@H](CCCNC(=N)N)NC(=O)CNC(=O)[C@@H](NC(=O)[C@H](CCCNC(=N)N)NC(=O)CNC(=O)[C@H](CCC(=O)O)NC(=O)[C@H](CCSC)NC(=O)[C@H](CCSC)NC(=O)[C@H](CC(=O)O)NC(=O)[C@H](Cc1ccc(O)cc1)NC(=O)[C@@H](NC(=O)[C@H](CCCNC(=N)N)NC(=O)[C@H](CCCCN)NC(=O)[C@@H]1CCCN1C(=S)Nc1ccc2c(c1)C(=O)OC21c2ccc(O)cc2Oc2cc(O)ccc21)[C@@H](C)O)C(C)C)C(=O)O [NCOR2 FITC] ({FITC}-PKRTYDMMEGRVGRAI-OH)
Kd (KPNA4 ARM [1]): 0.228 ± 0.011 µM

CC(C)C[C@H](NC(=O)[C@H](CCCNC(=N)N)NC(=O)[C@@H]1CCCN1C(=O)[C@H](CCCNC(=N)N)NC(=O)[C@H](CCCCN)NC(=O)[C@H](CC(N)=O)NC(=O)[C@@H]1CCCN1C(=O)[C@H](Cc1ccccc1)NC(=O)[C@@H](NC(=O)[C@H](CC(=O)O)NC(=O)[C@H](CCC(=O)O)NC(=O)[C@@H](N)CO)[C@@H](C)O)C(=O)N[C@@H](CCC(=O)O)C(=O)N[C@@H](CC(=O)O)C(=O)N[C@@H](CCCCN)C(=O)N[C@H](C(=O)N[C@H](C(N)=O)C(C)C)[C@@H](C)O [SPRTN]
IC50 (KPNA4 ARM [2]): 0.26 µM

CC(C)C[C@H](NC(=O)[C@H](CCCCN)NC(=O)[C@H](CCCNC(=N)N)NC(=O)[C@H](CCCCN)NC(=O)[C@@H]1CCCN1C(=O)[C@H](CO)NC(=O)[C@@H]1CCCN1)C(=O)N[C@@H](CCC(=O)O)C(=O)N[C@@H](CCC(=O)O)C(=O)N1CCC[C@H]1C(=O)N[C@H](C(=O)N[C@@H](CC(C)C)C(=O)N[C@@H](CCC(=O)O)C(=O)N[C@@H](Cc1ccccc1)C(=O)N[C@@H](CCCNC(=N)N)C(=O)N1CCC[C@H]1C(N)=O)C(C)C [ZNF532]
IC50 (KPNA4 ARM [3]): 1.3 µM

AGVKRSAAEMYGSVTE-NH2 [HNRNPC]
IC50 (KPNA4 ARM [3]): 0.5 µM

AKWDTANNPLYKEATS-NH2 [ITB3]
IC50 (TLN1 PTB): 1430 µM
Ki (TLN1 PTB; FP competition with FITC-PIP5K1C probe): 500 µM

Ac-AYAPPVFVFQKDKGQK-NH2 [RANBP3]
IC50 (KPNB1 HEAT): 2200 µM
Ki (KPNB1 HEAT): ~1000 µM

Ac-EISLKRSYESVEGNIK-NH2 [NCOR1 Wt]
IC50 (KPNA4 ARM [3]): 11 µM

Ac-GIIDPSTGECFPVTDY-NH2
IC50 (KEAP1 Kelch): 2.3 µM
binding to KEAP1 Kelch, result in words (KEAP1 Kelch): no effect on binding

Ac-GIIDPSTGERFPVTDY-NH2 [PLEC 4457-4471]
IC50 (KEAP1 Kelch): 1.5 µM

Ac-LIDLPLIDFCDTPEAHY [GTSE1]
IC50 (CLTC): 97 µM

Ac-LIYVDKENGEPGTRVV-NH2 [PTTG1]
IC50 (KEAP1 Kelch): 3 µM

Ac-NPPVATFVFGQSSNPY-NH2 [NUP153]
IC50 (KPNB1 HEAT): 49 µM

Ac-PPLPPPPLPPAPSLPY-NH2 [ATF5]
IC50 (KEAP1 Kelch): 4430 µM

Ac-VLPDCLTDGSDVVSDY-NH2 [CFAP36]
Ki (KEAP1 Kelch; FP competition with FITC-NFE2L1 228-243 probe, protein at 4x KD and 10 nM probe in master mix, 50 mM KPO4 pH 7.5, Ki calculated from IC50, triplicates): > 2040 µM
IC50 (KEAP1 Kelch; FP competition with FITC-NFE2L1 228-243 probe, protein at 4x KD and 10 nM probe in master mix, 50 mM KPO4 pH 7.5, triplicates): > 2040 µM
binding to KEAP1 Kelch, result in words (KEAP1 Kelch): did not bind at all

Ac-YDEEKGEFLPIQPAQH-NH2 [NFE2L2 T80K]
IC50 (KEAP1 Kelch): 2540 µM

Ac-YDEETGEFLPIQPAQH-NH2 [NFE2L2 Wt]
IC50 (KEAP1 Kelch): 0.31 µM

Ac-YDEKTGEFLPIQPAQH-NH2 [NFE2L2 E79K]
IC50 (KEAP1 Kelch): 1650 µM

Ac-YMQHLQEQQQQQMHLQ-NH2 [TREF1]
IC50 (KEAP1 Kelch): 490 µM

Ac-YVSGNLIDLCGNQGLP [MITF Y265C]
IC50 (CLTC): 220 µM

Ac-YVSGNLIDLYGNQGLP [MITF]
IC50 (CLTC): 150 µM
